SMILES strings stand for the structures.

Experiment [1] has as its target Tyrosinase (from mushroom, EC1.14.18.1). The experiment in a line: Mushroom tyrosinase activity assay (L-DOPA substrate, absorbance at 475 nm). Format: biochemical. The conditions noted are these: effective concentration to promote relative enzyme activity at 150%, 37 °C, 30 min, read-out: EC50 of activation effect on tyrosinase. The method, then: The tyrosinase activity was determined by referring to the previously reported method with appropriate modifications. […] The reaction was carried out at 37 °C for 30 min and the absorbance values were recorded at 475 nm with a Spectra Max M5 microplate reader (Molecular Device, Sunnyvale, CA, USA). Blank group (system containing PBS, enzyme and L-DOPA solution), blank control group (system containing PBS and L-DOPA solution), and sample control group (system containing PBS, sample solution and L-DOPA solution) were also set up. The relative enzyme activity of each sample group was calculated using the following formula: Relative enzyme activity (%) = [(B1 − B2)/(A1 − A2)] × 100 where A1 = absorbance of the blank group, A2 = absorbance of the blank control group, B1 = absorbance of the sample group and B2 = absorbance of the sample control group. The effective concentration of each sample to promote relative enzyme activity at 150% was calculated as EC50 value.

A further experiment concerns mushroom tyrosinase. Kind of experiment: Enzyme kinetic analysis (Lineweaver-Burk) of mushroom tyrosinase. Format: biochemical. The following applies: sample used as substrate. The method, then: The enzyme kinetics was determined by referring to the previously reported method with appropriate modifications. […] As described in Section 2.5, a blank group, a blank control group and a sample control group were set up. The initial rate of dopachrome formation in the reaction mixture was determined as an increase in absorbance at a wavelength of 475 nm per minute by using a microplate reader. The Michaelis constant (Km) and maximal velocity (Vmax) of tyrosinase activity were determined by Lineweaver-Burk plots using different concentrations of (+)-catechin and (−)-epicatechin as substrates.

Another experiment concerns the target tyrosinase. Also noted: method as in PMID 33782442. The following applies: read-out: EC50 of activation effect on tyrosinase; cited from earlier work.

A word on the EC50: it is the concentration needed to bring the measured effect to its halfway point. By Km is commonly meant the concentration of substrate that gives half-maximal velocity. Take `Oc1cc(O)c2c(c1)OC(c1ccc(O)c(O)c1)C(O)C2` (single isomer, unassigned; (+)) [(+)-Catechin]: in experiment [1], the EC50 worked out at 32.5 ± 1.7 µM. In addition, the values for the Km in the experiment with mushroom tyrosinase (DOPA 1 mM), in the experiment on mushroom tyrosinase (DOPA 1.5 mM) and with mushroom tyrosinase (DOPA 2 mM) were 62 µM, 74.3 µM and 87 µM, respectively. Moreover, the entries for the “Vm of tyrosinase activity” value in the experiment on mushroom tyrosinase (DOPA 1 mM), in the experiment on mushroom tyrosinase (DOPA 1.5 mM) and in the experiment on mushroom tyrosinase (DOPA 2 mM) were 200.00, 175.44 and 158.73, respectively.
Consider `Oc1cc(O)c2c(c1)O[C@H](c1ccc(O)c(O)c1)[C@H](O)C2` [(−)-Epicatechin], for which the EC50 in experiment [1] came out at 36.7 ± 0.43 µM. In addition, the results for the Km in the experiment with mushroom tyrosinase (DOPA 1 mM), in the experiment on mushroom tyrosinase (DOPA 1.5 mM) and in the experiment with mushroom tyrosinase (DOPA 2 mM) were 11.2 µM, 11.7 µM and 18 µM, respectively. Further, the entries for the “Vm of tyrosinase activity” value in the experiment on mushroom tyrosinase (DOPA 1 mM), in the experiment on mushroom tyrosinase (DOPA 1.5 mM) and with mushroom tyrosinase (DOPA 2 mM) were 85.47, 80.00 and 71.94, respectively.
Consider `O=C(CCc1ccc(O)c(O)c1)c1c(O)cc(O)c([C@@H]2O[C@H](CO)[C@@H](O)[C@H](O)[C@H]2O)c1O` [Aspalathin], for which, at tyrosinase, the EC50 is 265 ± 4.56 µM.

The values are drawn from paper PMC9777575, “Exploring the Promotive Effects and Mechanisms of Different Polyphenolic Extracts from Prinsepia utilis Royle Seed Shell on Tyrosinase” (Foods, 2022).
